# Read-outs that look alike come from different tables or passages of the source.
# B1: SFRP2: mouse secreted protein that binds to soluble Wnts and prevents upstream activation of the Wnt pathway (protein, UniProt P97299 25-295, looked up)
# Secreted frizzled-related …: LFLFGQPDFSYKRSNCKPIPANLQLCHGIEYQNMRLPNLLGHETMKEVLEQAGAWIPLVMKQCHPDTKKFLCSLFAPVCLDDLDETIQPCHSLCVQVKDRCAPVMSAFGFPWPDMLECDRFPQDNDLCIPLASSDHLLPATEEAPKVCEACKTKNEDDNDIMETLCKNDFALKIKVKEITYINRDTKIILETKSKTIYKLNGVSERDLKKSVLWLKDSLQCTCEEMNDINAPYLVMGQKQGGELVITSVKRWQKGQREFKRISRSIRKLQC
# Key:
# IMR90-4-derived BMECs = assay: Permeability coefficients (Pe) of radiolabeled small molecules across the IMR90-4-derived BMEC/astrocyte co-culture model
# Method: For co-culture experiments, primary astrocytes were isolated as previously described^37. Briefly, cortices were isolated from P6 neonatal Sprague Dawley rats (Harlan) and minced in Hank's Balanced Salt Solution (HBSS; Sigma). […] After trituration and filtration, cells were cultured on collagen-I-coated flasks (100 μg/mL; Sigma) in DMEM containing 10% qualified heat-inactivated fetal bovine serum (FBS; Invitrogen), 10% heat-inactivated horse serum (Sigma), 2 mM L-glutamine, and 1% antibiotic-antimycotic (Invitrogen). Human embryonic kidney 293 cells (HEK cells; ATCC) were cultured in DMEM supplemented with 10% FBS, 1 mM sodium pyruvate (Sigma), 2 g/L sodium bicarbonate (Fisher Scientific), 30 mM HEPES (Sigma), and 1% antibiotic-antimycotic, and used as a non-neural cell control. Co-culture of hPSC-derived BMECs was initiated with primary rat astrocytes or HEK cells in either EC medium (called 1% PDS medium in Table 2) or 70:30 (v/v) DMEM/F12 (Sigma/Invitrogen) supplemented with 1% antibiotic-antimycotic, 2% B27 (Invitrogen), and 10% FBS^37 (called 10% FBS medium in Table 2). Trans-endothelial electrical resistance (TEER) measurements were performed using an EVOM voltohmmeter (World Precision Instruments) at the start of co-culture and every 24 h thereafter. The resistance value (Ω×cm^2) of an empty filter coated with collagen/fibronectin was subtracted from each measurement. Permeability coefficients (Pe) were evaluated after 24 h of co-culture as previously described^34. For sodium fluorescein Pe measurements, 10% FBS medium containing 1 μM sodium fluorescein solution was added to the apical chamber of the […]™ filter. 200 μL aliquots were extracted from the basolateral chamber (which contains 1.5 mL of medium) every 30 min and replaced by fresh medium. Using a fluorescent plate reader and calibration curve, the flux of fluorescein to the bottom chamber and permeability coefficients were calculated as described by Calabria et al^34. To determine the Pe of radiolabeled ligands, compounds were diluted to 0.4 μCi in transport buffer (distilled water with 0.12 M NaCl, 25 mM NaHCO3, 3 mM KCl, 2 mM MgSO4, 2 mM CaCl2, 0.4 mM K2HPO4, 1 mM HEPES, and 0.1% bovine serum albumin [BSA; Sigma]) and 0.5 mL were added to the upper chamber. 200 μL aliquots were extracted from the basolateral chamber every 15 min and replaced by fresh buffer. […] [^3H]-vincristine was purchased from American Radiolabeled Chemicals, while all other radiolabeled compounds were acquired from PerkinElmer. All compound incubations were conducted at 37° C., and the radioactive permeability experiments were carried out on a rotator. Triplicate filters were used for all permeability studies and the values listed throughout the Results section are representative of a minimum of two biological replicates.
# [1] = test system: differentiating IMR90-4 iPSC cultures (BMEC specification); assay: Flow cytometry of PECAM-1/GLUT-1 expression in differentiating IMR90-4 cultures under Wnt inhibition; type: cell-based, human
# Method: Cells were harvested via Accutase (Invitrogen) incubation for 2-3 min, fixed in 100% ice-cold methanol for 20 min, and blocked with 40% PBSG for 20 min at room temperature. Primary antibody labeling (Table 5) was performed in 10% PBSG for 1 h at room temperature. IgG controls were used at the same concentration. After a wash with 5% FBS in PBS, secondary antibodies (goat anti-rabbit Alexa 488 and goat anti-mouse Alexa 647; 1:200) in 10% PBSG were added to each sample for 30 min at room temperature. After two washes with 5% FBS in PBS, the samples were analyzed on a FACScaliber flow cytometer. PECAM-1^+ events were quantified using a PECAM-1/forward scatter dot plot referenced to a rabbit IgG control. GLUT-1^+ events were quantified using a GLUT-1/forward scatter dot plot referenced to a 4D UM culture that lacked BMECs. Events that were found in both of these positive gates were classified as PECAM-1^+/GLUT-1^+ cells. βIII tubulin and nestin expression were quantified against rabbit and mouse IgG controls, respectively. Data are presented as two-dimensional dot plots with color codes to indicate events within each gate.
# Wnt/β-catenin pathway = assay: Quantitative RT-PCR of genes elevated during BMEC specification under Wnt inhibition; type: cell-based, human; conditions: IMR90-4, 7 days UM; SFRP2 250 then 750 ng/mL, or 10 μM XAV-939 from day 2, versus untreated or DMSO
# Method: Cells were differentiated as previously described. […] For RNA collection, cells were washed once with PBS and dissociated with trypsin or accutase. Total RNA was extracted using an RNeasy Mini Kit (Qiagen) according to the manufacturer's instructions. cDNA was generated from 1 μg of RNA using Omniscript reverse transcriptase (Qiagen) and oligo-dT primers (Invitrogen). Quantitative PCR (qPCR) was then performed using 1 μL of cDNA and iQ SYBR Green Supermix (Bio-Rad) on an iCycler (Bio-Rad). RT-PCR was also performed using GoTaq Green Master Mix (Promega). Primer sequences are supplied in Table 8. Relative expression was quantified using the comparative cycle threshold (CT) method, normalizing to glyceraldehyde-3-phosphate dehydrogenase (GAPDH) expression. Fold difference was calculated as x^−ΔΔCT, where x refers to primer efficiency calculated according LinRegPCR version 12.3^59. Transcript amplification was analyzed by 2% agarose gel electrophoresis of the qPCR or RT-PCR products.
# [2] = test system: differentiating IMR90-4 cultures; assay: Claudin-5 and occludin localization and western blots in differentiating cultures under XAV-939; type: cell-based, human; conditions: data not shown
# Method: Cells were washed once with PBS and fixed in either 2% paraformaldehyde or 100% ice-cold methanol for 15 min. The cells were then blocked with 40% goat serum in PBS (40% PBSG). If probing for an intracellular antigen, 0.1% TX-100 was present in the 40% PBSG. The cells were then incubated in 40% PBSG containing primary antibody (see Table 5 for list) for one h at room temperature. After three washes in PBS, cells were incubated in 40% PBSG containing goat anti-rabbit Texas Red (1:500; Invitrogen) or goat anti-mouse Alexa 488 (1:500; Invitrogen). Cell nuclei were labeled with 300 nM 4′,6-Diamidino-2-pheny-lindoldihydrochloride (DAPI) for 10 min. Cells were washed three times in PBS and visualized. In situ hybridization for detection of WNT7A and WNT7B transcripts was conducted similar to the method described by Planell-Saguer et al^58. Briefly, cells were washed once with PBS and fixed in 2% paraformaldehyde for 10 min, followed by permeabilization in PBS containing 0.1% TX-100 for 5 min. Pre-hybridization was performed with a water-based solution containing 3% BSA and 4× saline-sodium citrate buffer (SSC; Fisher), followed by a 1 h hybridization in 4×SSC and 10% dextran sulfate (Fisher) at room temperature. Digoxigenin-labeled locked nucleic acid probes were purchased from Exiqon (sequences found in Table 6). […]
# [3] = test system: p-glycoprotein, BCRP, and the MRP family; assay: Doxorubicin accumulation assay with efflux inhibitors in monocultured IMR90-4-derived BMECs; type: in vitro ADME, human; conditions: monoculture; doxorubicin 0.25 μCi, 1 h; 5 μM cyclosporin A, 1 μM Ko143 or 10 μM MK 571
# [4] = test system: BBB influx and efflux transporters (GLUT-1, MDR1, BCRP, MRP family, organic cation transporters); conditions: cited from earlier work
# [5] = test system: p-glycoprotein, BCRP and MRP family efflux transporters; assay: Apical-to-basolateral transport of doxorubicin with efflux inhibitors, IMR90-4-derived BMEC/astrocyte model; type: in vitro ADME, human; conditions: astrocyte co-culture; 60 min; normalized to no inhibitor
# [6] = Sodium fluorescein permeability, IMR90-4-derived BMEC/astrocyte co-culture; type: in vitro ADME; conditions: human; IMR90-4-derived BMECs, astrocyte co-culture, 1 μM sodium fluorescein; read-out: fluorescein permeability coefficient (Pe) (converted)
# Method: (§1) Permeability coefficients were evaluated after 24 hours of co-culture as previously described. […] Using a fluorescent plate reader and calibration curve, the rate of fluorescene influx to the bottom chamber was calculated, and final values for permeability coefficients were then calculated according to Calabria et al.^34.
# primary human BMECs = primary human BMECs (ref. 56); cited from earlier work
# [7] = Sodium fluorescein permeability, DF19-9-11T-derived BMECs; type: in vitro ADME; conditions: human, 1 μM sodium fluorescein, read-out: fluorescein permeability coefficient (Pe), average (converted)
# Method: as §1
# hCMEC/D3 line = hCMEC/D3 line (ref. 9); cited from earlier work
# [8] = cited from earlier work
# p-glycoprotein = p-glycoprotein (Homo sapiens, UniProt P08183)
# [9] = IMR90-4-derived BMEC/astrocyte co-culture model
# [10] = IMR90-4-derived BMECs co-cultured with rat astrocytes, radiolabeled compound, apical to basolateral over 1 h, 37° C., mean ± SD of biological replicates
# [11] = efflux transporter substrates (Table 6)
# Chain of p-glycoprotein (P08183 whole entry): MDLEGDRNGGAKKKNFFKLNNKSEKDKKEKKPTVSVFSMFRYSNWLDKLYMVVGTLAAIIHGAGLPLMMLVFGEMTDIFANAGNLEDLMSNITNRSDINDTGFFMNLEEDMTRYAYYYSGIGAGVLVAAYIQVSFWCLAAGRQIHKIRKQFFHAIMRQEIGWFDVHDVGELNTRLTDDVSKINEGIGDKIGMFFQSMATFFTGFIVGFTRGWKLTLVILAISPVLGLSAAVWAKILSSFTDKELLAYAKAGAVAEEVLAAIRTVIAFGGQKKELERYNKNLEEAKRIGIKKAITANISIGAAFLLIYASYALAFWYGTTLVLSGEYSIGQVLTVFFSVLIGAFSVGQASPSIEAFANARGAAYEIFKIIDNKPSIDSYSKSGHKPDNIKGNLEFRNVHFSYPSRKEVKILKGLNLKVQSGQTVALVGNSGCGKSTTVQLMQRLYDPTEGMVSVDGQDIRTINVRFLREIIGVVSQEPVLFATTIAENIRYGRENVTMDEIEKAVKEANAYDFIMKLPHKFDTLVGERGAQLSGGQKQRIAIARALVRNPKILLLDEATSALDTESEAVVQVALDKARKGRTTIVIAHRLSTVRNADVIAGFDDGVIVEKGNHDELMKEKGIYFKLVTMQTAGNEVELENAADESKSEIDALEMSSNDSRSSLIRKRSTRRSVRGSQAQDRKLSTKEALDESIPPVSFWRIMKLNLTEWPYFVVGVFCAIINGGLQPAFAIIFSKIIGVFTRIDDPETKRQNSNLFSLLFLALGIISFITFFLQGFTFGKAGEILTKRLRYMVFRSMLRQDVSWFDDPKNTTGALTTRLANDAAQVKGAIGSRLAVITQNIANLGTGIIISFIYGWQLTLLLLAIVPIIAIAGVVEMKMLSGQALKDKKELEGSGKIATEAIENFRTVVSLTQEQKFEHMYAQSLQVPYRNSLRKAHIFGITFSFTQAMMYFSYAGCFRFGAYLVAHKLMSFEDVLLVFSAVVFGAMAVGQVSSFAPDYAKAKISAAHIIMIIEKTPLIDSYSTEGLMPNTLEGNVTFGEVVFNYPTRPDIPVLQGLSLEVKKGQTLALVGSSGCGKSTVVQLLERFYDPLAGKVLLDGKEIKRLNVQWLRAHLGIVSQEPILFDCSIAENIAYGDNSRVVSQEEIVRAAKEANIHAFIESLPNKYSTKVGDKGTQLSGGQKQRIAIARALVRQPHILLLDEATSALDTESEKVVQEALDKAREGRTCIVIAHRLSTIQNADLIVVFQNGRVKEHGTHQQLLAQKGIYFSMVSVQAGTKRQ
molecule,measurement,setting,value
CN1C(=O)CN=C(c2ccccc2)c2cc(Cl)ccc21 [Diazepam],Pe value,IMR90-4-derived BMECs; [9],18.5 ×10⁻⁶ cm/s
same,Average Pe,IMR90-4-derived BMECs; [10],1.11 ± 0.45 10^−3 cm/min
Oc1nc(-c2ccc(C(F)(F)F)cc2)nc2c1CSCC2 [XAV-939],Mean per cell expression of GLUT-1,"[1]; IMR90-4, 6D UM 2D EC, 10 μM XAV-939, DMSO control 285",272 A.U.
same,% GLUT-1^+/PECAM-1^+,"[1]; IMR90-4, 6D UM 2D EC, 10 μM XAV-939 from day 2 of UM, DMSO control 64%",46%
same,% PECAM-1^+ overall,"[1]; IMR90-4, 6D UM 2D EC, 10 μM XAV-939 from day 2 of UM, DMSO control 68%",61%
same,net reduction in the overall number of PECAM-1^+/GLUT-1^+ BMECs,"[1]; IMR90-4, XAV-939 versus DMSO control",20%
same,"expression of LEF1, FST, STRA6, FZD6, SLC2A1 and ABCB1 by quantitative RT-PCR",Wnt/β-catenin pathway,statistically significant downregulation
same,claudin-5 or occludin localization,[2]; XAV-939 treatment,did not alter
same,amounts of claudin-5 and occludin by western blots,[2]; regardless of XAV-939 treatment,equal amounts
COc1ccc2c3c([nH]c2c1)[C@H](CC(C)C)N1C(=O)[C@H](CCC(=O)OC(C)(C)C)NC(=O)[C@@H]1C3 [Ko143],accumulation of doxorubicin in the presence of inhibitor,[3],increased
same,Transporter recognition,[4]; efflux transporter inhibitors (Table 6),BCRP
same,transport of doxorubicin from the apical to basolateral chamber in the presence of inhibitor,[5],1.3 fold
O=C1OC2(c3ccc(O)cc3Oc3cc(O)ccc32)c2ccccc21 [sodium fluorescein],Papp A→B at 1 μM,[6],0.0367 ×10⁻⁶ cm/s
same,reported sodium fluorescein Pe,primary human BMECs,53.3 ×10⁻⁶ cm/s
same,Papp A→B at 1 μM,[7],0.085 ×10⁻⁶ cm/s
same,reported sodium fluorescein Pe,hCMEC/D3 line,56.7 ×10⁻⁶ cm/s
COc1cccc2c1C(=O)c1c(O)c3c(c(O)c1C2=O)C[C@@](O)(C(=O)CO)C[C@@H]3O[C@H]1C[C@H](N)[C@H](O)[C@H](C)O1 [Doxorubicin],Transporter recognition,[4]; [11],"MDR1, BCRP, MRP1, MRP2"
COc1cc2c(c(OC)c1OC)-c1ccc(OC)c(=O)cc1[C@@H](NC(C)=O)CC2 [Colchicine],Octanol/water partition coefficient (logD),[8],1.03
same,Pe value,IMR90-4-derived BMECs; [9],1.53 ×10⁻⁶ cm/s
same,Average Pe,IMR90-4-derived BMECs; [10],0.09 ± 0.1 10^−3 cm/min
OC[C@H]1O[C@@](CO)(O[C@H]2O[C@H](CO)[C@@H](O)[C@H](O)[C@H]2O)[C@@H](O)[C@@H]1O [Sucrose],Octanol/water partition coefficient (logD),[8],−3.3
Rhodamine 123,Transporter recognition,[4]; [11],MDR1
CN(C)C(=O)CCSC(SCCC(=O)O)c1cccc(/C=C/c2ccc3ccc(Cl)cc3n2)c1 (stereo not drawn) [MK 571],transport of rhodamine 123 from the apical to basolateral chamber in the presence of inhibitor,p-glycoprotein,not
Inulin,Octanol/water partition coefficient (logD),[8],−0.25
same,Transporter recognition,[4]; compounds of the permeability screen (Table 5),None
same,Average Pe,IMR90-4-derived BMECs; [10],0.029 ± 0.015 10^−3 cm/min
COc1cc2nc(N3CCN(C(=O)c4ccco4)CC3)nc(N)c2cc1OC [Prazosin],Octanol/water partition coefficient (logD),[8],2.16
same,Pe value,IMR90-4-derived BMECs; [9],4.77 ×10⁻⁶ cm/s
same,Average Pe,IMR90-4-derived BMECs; [10],0.29 ± 0.04 10^−3 cm/min
CC[C@]1(O)C[C@H]2CN(CCc3c([nH]c4ccccc34)[C@@](C(=O)OC)(c3cc4c(cc3OC)N(C=O)[C@H]3[C@@](O)(C(=O)OC)[C@H](OC(C)=O)[C@]5(CC)C=CCN6CC[C@]43[C@@H]65)C2)C1 [Vincristine],Octanol/water partition coefficient (logD),[8],2.8
same,Average Pe,"IMR90-4-derived BMECs; human, 1 h",0.06 ± 0.02 10^−3 cm/min
same,Pe value,"IMR90-4-derived BMECs; human, 1 h",1.03 ×10⁻⁶ cm/s
B1,"expression of LEF1, FST, STRA6, FZD6, SLC2A1 and ABCB1 by quantitative RT-PCR",Wnt/β-catenin pathway,statistically significant downregulation
